Experimental data from patent publication US5786486A, “Acrylamide derivatives and process for production thereof” (Kyorin Pharmaceutical Co., Ltd., priority 1994, dated 1998).
≈ marks a conversion by molar mass, not a printed value.

Assays:
[1] = test system: HeLa S3 cells; assay: HeLa Cell Growth Inhibition Activity (HeLa S3, MTT); format: cell-based; settings: Homo sapiens, 72 hours exposure
Experimental: HeLa Cell Growth Inhibition Activity:
HeLa S3 cells were maintained as a monolayer culture in Eagle's minimal medium (Nissui Seiyaku K. K., Tokyo) containing […] glutamine, 100 μg/mL of kanamycin sulfate, and 10% inactivated fetal calt serum at 37° C. in a carbon dioxide incubator. The cells 1.8×10^3 were inoculated to a 96-well plate, and were exposed to the test compounds from the next day for 72 hours. Then, the viable cell numbers were measured by evaluating the ability to reduce 3-[4,5-dimethylthiazol-2-yl]-2,5-diphenyltetrazolium bromide (MTT) according to the Mosmann's method (Mosmann,T., J. Imunol. Meth., 65, 55-63, 1983).

[2] = test system: Colon 26 cells; assay: Antitumor effect in Colon 26-bearing mice; format: in vivo, CDF1 female mice; settings: for Antitumor activity Colon-26 TGI % (tumor growth inhibition rate): Colon 26-bearing CDF1 mice, single dose via tail vein, tumor weighed one week after; for Chemotherapy index MTD/TGI50: ratio of maximum tolerant dose (mg/kg) to dose giving 50% tumor growth inhibition (mg/kg), colon26-bearing mice
Experimental: Antitumor effect in Colon 26-bearing mice:
Colon 26 cells 1×10^6 were transplanted into an axillary region of 8-week old CDF1 female mice (Japan SLC Inc., Hamamatsu) subcutaneously. Six days after the transplantation, when the tumor grew palpable, the compound was administered via the tail vein. One week after the administration, the tumor was removed and weighed. The antitumor activity was represented by tumor growth inhibition rate (TGI %=(1--T/C)×100) derived from the ratio (T/C) of the average tumor weight (T) of the compound-administered group to the average tumor weight (C) of the control group.

`COC(=O)c1cc2c3c(cc(O)c2[nH]1)N(C(=O)/C=C/c1ccc(/C=C/C(=O)N2C[C@@H](CCl)c4c2cc(O)c2[nH]c(C(=O)OC)cc42)cc1)C[C@H]3CCl` [Example 22, (S,S)-3,3'-[3,3 '-(1,4-phenylene)diacryloy]-bis[1-chloromethyl-5-hydroxy-1,2,3,6-tetrahydropyrrolo[3,2-e]indole-7-methoxycarbonyl]] was tested, and the IC50 [1] was 0.0227 ng/mL (≈ 0.0305 nM).

In the case of `O=C(/C=C/c1ccc(/C=C/C(=O)N2C[C@@H](CCl)c3c2cc(O)c2[nH]c4ccccc4c32)cc1)N1C[C@@H](CCl)c2c1cc(O)c1[nH]c3ccccc3c21` [Example 20, (S,S)-3,3'-[3,3'-(1,4-phenylene)diacryloyl]-bis[1-chloromethyl-5-hydroxy-1,2-dihydropyrrolo[3,2-a]carbazole]], the IC50 [1] was 0.0716 ng/mL (≈ 0.0984 nM).

With `COC(=O)c1c(C(F)(F)F)[nH]c2c(O)cc3c(c12)[C@H](CCl)CN3C(=O)/C=C/c1ccc(/C=C/C(=O)N2C[C@@H](CCl)c3c2cc(O)c2[nH]c(C(F)(F)F)c(C(=O)OC)c32)c2c1OCO2` [Example 5, (S,S)-3,3'-[3,3'-(2,3-(methylenedioxy)-1,4-phenylene)diacryloyl]-bis[1-chloromethyl-5-hydroxy-7-trifluoromethyl-1,2,3,6-tetrahydropyrrolo[3,2-e]indole-8-methoxycarbonyl]] the IC50 [1] was 0.00595 ng/mL (≈ 0.00644 nM) and the “Antitumor activity Colon-26 TGI % (tumor growth inhibition rate)” value ([2]; 1.95 μg/kg) was 90%.

`COC(=O)c1c[nH]c2c(O)cc3c(c12)[C@H](CCl)CN3C(=O)/C=C/c1ccc(/C=C/C(=O)N2C[C@@H](CCl)c3c2cc(O)c2[nH]cc(C(=O)OC)c32)cc1` [Example 21, (S,S)-3,3'-[3,3'-(1,4-phenylene)diacryloy]-bis[1-chloromethyl-5-hydroxy-1,2,3,6-tetrahydropyrrolo[3,2-e]indole-8-methoxycarbonyl]] was tested, and the IC50 [1] was 0.00035 ng/mL (≈ 0.000471 nM).

`Cc1c[nH]c2c(O)cc3c(c12)[C@H](CCl)CN3C(=O)/C=C/c1ccc(/C=C/C(=O)N2C[C@@H](CCl)c3c2cc(O)c2[nH]cc(C)c32)cc1` [Example 19, (S,S)-3,3'-[3,3'-(1,4-phenylene)diacryloy]-bis[1-chloromethyl-5-hydroxy-8-methyl-1,2,3,6-tetrahydropyrrolo[3,2-e]indole]] gave an IC50 [1] of 0.0134 ng/mL (≈ 0.0204 nM).

`COC(=O)c1c(C(F)(F)F)[nH]c2c(O)cc3c(c12)[C@H](CCl)CN3C(=O)/C=C/c1ccc(/C=C/C(=O)N2C[C@@H](CCl)c3c2cc(O)c2[nH]c(C(F)(F)F)c(C(=O)OC)c32)c(OC)c1OC` [Example 8, (S,S)-3,3'-[3,3 '-(2,3-dimethoxy-1,4-phenylene)diacryloyl]-bis[1-chloromethy 1-5-hydroxy-7-trifluoromethyl-1,2,3,6-tetrahydropyrrolo[3,2-e]indole-8-methoxycarbonyl]] was tested, and the IC50 [1] was 0.00158 ng/mL (≈ 0.00168 nM), the “Antitumor activity Colon-26 TGI % (tumor growth inhibition rate)” value ([2]; 0.977 μg/kg) was 89% and the “Chemotherapy index MTD/TGI50” value [2] was 4.6.

Work on `COC(=O)c1c(C)[nH]c2c(O)cc3c(c12)[C@H](CCl)CN3C(=O)/C=C/c1ccc(/C=C/C(=O)N2C[C@@H](CCl)c3c2cc(O)c2[nH]c(C)c(C(=O)OC)c32)cc1` [Example 18, (S,S)-3,3'-[3,3'-(1,4-phenylene)diacryloyl]-bis[1-chloromethyl-5-hydroxy-7-methyl-1,2,3,6-tetrahydropyrrolo [3,2-e]indole-8-methoxycarbonyl]] yielded an IC50 [1] of 0.000459 ng/mL (≈ 0.000595 nM).

For `COC(=O)c1c(C(F)(F)F)[nH]c2c(O)cc3c(c12)[C@H](CCl)CN3C(=O)/C=C/c1ccc(/C=C/C(=O)N2C[C@@H](CCl)c3c2cc(O)c2[nH]c(C(F)(F)F)c(C(=O)OC)c32)c2c1OCCO2` [Example 4, (S,S)-3,3'-[3,3'-(2,3-(ethylenedioxy)-1,4-phenylene)diacryloyl]-bis[1-chloromethyl-5-hydroxy-7-trifluoromethyl-1,2,3,6-tetrahydropyrrolo [3,2-e]indole-8-methoxycarbonyl]], the IC50 [1] was 0.00276 ng/mL (≈ 0.00294 nM), the “Antitumor activity Colon-26 TGI % (tumor growth inhibition rate)” value ([2]; 0.488 μg/kg) was 91% and the “Chemotherapy index MTD/TGI50” value [2] was 9.

In the case of `COC(=O)c1c(C(F)(F)F)[nH]c2c(O)cc3c(c12)[C@H](CCl)CN3C(=O)/C=C/c1ccc(/C=C/C(=O)N2C[C@@H](CCl)c3c2cc(O)c2[nH]c(C(F)(F)F)c(C(=O)OC)c32)c2ccccc12` [Example 10, (S,S)-3,3'-[3,3'-(1,4-naphthalenediyl)diacryloyl]-bis[1-chloromethyl-5-hydroxy-7-trifluoromethyl-1,2,3,6-tetrahydropyrrolo[3,2-e]indole-8-methoxycarbonyl]], the IC50 [1] was 0.011 ng/mL (≈ 0.0118 nM), the “Antitumor activity Colon-26 TGI % (tumor growth inhibition rate)” value ([2]; 0.977 μg/kg) was 85% and the “Chemotherapy index MTD/TGI50” value [2] was 7.4.

With `COC(=O)c1c(C(F)(F)F)[nH]c2c(O)cc3c(c12)[C@H](CCl)CN3C(=O)/C=C/c1ccc(/C=C/C(=O)N2C[C@@H](CCl)c3c2cc(O)c2[nH]c(C(F)(F)F)c(C(=O)OC)c32)cc1` [Example 1, (S,S)-3,3'-[3,3'-(1,4-phenylenediacryloyl)]-bis[1-chloromethyl-5-hydroxy-7-trifluoromethyl-1,2,3,6-tetrahydropyrrolo[3,2-e]indole-8-methoxycarbonyl]] the IC50 [1] was 0.0031 ng/mL (≈ 0.00352 nM), the “Antitumor activity Colon-26 TGI % (tumor growth inhibition rate)” value ([2]; 7.81 μg/kg) was 92% and the “Chemotherapy index MTD/TGI50” value [2] was 21.9.

Work on `CCc1c(/C=C/C(=O)N2C[C@@H](CCl)c3c2cc(O)c2[nH]c(C(F)(F)F)c(C(=O)OC)c32)ccc(/C=C/C(=O)N2C[C@@H](CCl)c3c2cc(O)c2[nH]c(C(F)(F)F)c(C(=O)OC)c32)c1CC` [Example 6, (S,S)-3,3'-[3,3'-(2,3-diethyl-1,4-phenylene)diacryloyl]-bis[1-chloromethyl-5-hydroxy-7-trifluoromethyl-1,2,3,6-tetrahydropyrrolo[3,2-e]indole-8-methoxycarbonyl]] yielded an IC50 [1] of 0.0318 ng/mL (≈ 0.034 nM).

Work on `COC(=O)c1c(C(F)(F)F)[nH]c2c(O)cc3c(c12)[C@H](CCl)CN3C(=O)/C=C/c1ccc(/C=C/C(=O)N2C[C@@H](CCl)c3c2cc(O)c2[nH]c(C(F)(F)F)c(C(=O)OC)c32)c2c(OC)ccc(OC)c12` [Example 3, (S,S)-3,3'-[3,3'-(5,8-dimethoxy-1,4-naphthalenediyl)diacryloyl]-bis[1-chloromethyl-5-hydroxy-7-trifluoromethyl-1,2,3,6-tetrahydropyrrolo [3,2-e]indole-8-methoxycarbonyl]] yielded an IC50 [1] of 0.00934 ng/mL (≈ 0.00944 nM).

For `COC(=O)c1c(C(F)(F)F)[nH]c2c(O)cc3c(c12)[C@H](CCl)CN3C(=O)/C=C/c1ccc(-c2ccc(/C=C/C(=O)N3C[C@@H](CCl)c4c3cc(O)c3[nH]c(C(F)(F)F)c(C(=O)OC)c43)cn2)nc1` [Example 13, (S,S)-3,3'-[3,3'-(2,2'-bipyridyl-5,5'-diyl)diacryloyl]-bis[1-chloromethyl-5-hydroxy-7-trifluoromethyl-1,2,3,6-tetrahydropyrrolo [3,2-e]indole-8-methoxycarbonyl]], the IC50 [1] was 0.0198 ng/mL (≈ 0.0207 nM), the “Antitumor activity Colon-26 TGI % (tumor growth inhibition rate)” value ([2]; 3.91 μg/kg) was 88% and the “Chemotherapy index MTD/TGI50” value [2] was 3.6.
